From patent publication US20240360067A1, “DERIVATIVES OF ITACONIC ACID AND THEIR USE AS ANTI-INFLAMMATORY AGENTS” (Sitryx Therapeutics Limited, priority 2021, published 2024) come the findings set out here.

For one data set, the system named is IL-1β. In words: THP-1 AlphaLISA IL-1β cytokine assay (PMA-differentiated THP-1, LPS then nigericin). The conditions noted are these: Homo sapiens, 30 min pre-incubation, LPS 24 hr, nigericin 1 hour. It counts as cell-based. On the procedure: (§1) Measuring Inhibitory Effects on IL-1β, and IL-6 Cytokine Output from THP-1s
(§2) The cytokine inhibition profiles of compounds of formula (I) were determined in a differentiated THP-1 cell assay. All assays were performed in RPMI-1640 growth medium (Gibco), supplemented with 10% fetal bovine serum (FBS; Gibco), 1% penicillin-streptomycin and 1% sodium pyruvate unless specified otherwise. The IL-1β and IL-6 cytokine inhibition assays were each run in a background of differentiated THP-1 cells as described below. All reagents described were from Sigma-Aldrich unless specified otherwise. Compounds were prepared as 10 mM DMSO stocks.
(§3) THP-1 cells were expanded as a suspension up to 80% confluence in appropriate growth medium. Cells were harvested, suspended, and treated with an appropriate concentration of phorbol 12-myristate 13-acetate (PMA) over a 72 hr period (37° C./5% CO2).
(§4) Following 72 hrs of THP-1 cell incubation, cellular medium was removed and replaced with fresh growth media containing 1% of FBS. Working concentrations of compounds were prepared separately in 10% FBS treated growth medium and pre-incubated with the cells for 30 minutes (37° C./5% CO2). Following the 30 minute compound pre-incubation, THP-1s were treated with an appropriate concentration of LPS and the THP-1s were subsequently incubated for a 24 hr period (37° C./5% CO2). An appropriate final concentration of Nigericin was then dispensed into the THP-1 plates and incubated for 1 hour (37° C./5% CO2) before THP-1 supernatants were harvested and collected in separate polypropylene 96-well holding plates.
(§5) Reagents from each of the IL-1β and IL-6 commercial kits (Perkin Elmer) were prepared and run according to the manufacturer's instructions. Subsequently, fluorescence signal detection in a microplate reader was measured (EnVision® Multilabel Reader, Perkin Elmer).
(§6) Percentage inhibition was calculated per cytokine by normalizing the sample data to the high and low controls used within each plate (+/−LPS respectively).
(In general: Alpha assays give light when donor and acceptor beads are brought close together.)

For the next data set, the system named is IL-6. In words: THP-1 AlphaLISA IL-6 cytokine assay (PMA-differentiated THP-1, LPS then nigericin). It counts as cell-based. The conditions noted are these: Homo sapiens; differentiated THP-1 cells; 30 min pre-incubation, LPS 24 hr, nigericin 1 hour. On the procedure: as §1, §2, §3, §4, §5, §6
For another data set, the system named is NRF2. In words: NRF2 activation assay (DiscoverX PathHunter NRF2 translocation kit, U2OS cells). It counts as cell-based. The conditions noted are these: Homo sapiens; for Emax: U2OS, normalised to dimethyl fumarate high control; for EC50: U2OS PathHunter cells, 6 hours.
Data set [1] in a line: Hepatocyte stability assay, human. The conditions noted are these: 10 μM compound, 0.5×10^6 cells/mL, 60 min; for CIint: Human hepatocytes; for half-life at 10 μM: cryo-preserved hepatocytes, read-out: T½. It counts as in vitro ADME. An excerpt:
(§7) Defrosted cryo-preserved hepatocytes (viability >70%) were used to determine the metabolic stability of a compound via calculation of intrinsic clearance (CIint; a measure of the removal of a compound from the liver in the absence of blood flow and cell binding). Clearance data are particularly important for in vitro work as they can be used in combination with in vivo data to predict the half-life and oral bioavailability of a drug.
(§8) The metabolic stability in hepatocytes assay involved a time-dependent reaction using both positive and negative controls. The cells must be pre-incubated at 37° C. then spiked with test compound (and positive control); samples taken at pre-determined time intervals were analysed to monitor the change in concentration of the initial drug compound over 60 minutes. A buffer incubation reaction (with no hepatocytes present) acted as a negative control and two cocktail solutions, containing compounds with known high and low clearance values (verapamil/7-hydroxycoumarin and propranolol/diltiazem), acted as positive controls. • 1. The assay was run with a cell concentration of 0.5×10^6 cells/mL in Leibovitz buffer. • 2. All compounds and controls were run in duplicate. • 3. Compound concentration was 10 μM. • 4. All compounds and controls were incubated with both cells and buffer to show turnover is due to hepatic metabolism. • 5. All wells on the incubation plate had 326.7 μL of either cells or buffer added. • 6. Prior to assay, cell and buffer-only incubation plates were preincubated for 10 mins at 37° C. • 7. The assay was initiated by adding compounds, 3.3 μL of 1 mM in 10% DMSO-90% Buffer; final DMSO concentration is 0.1%. • 8. Samples were taken at regular timepoints (0, 5, 10, 20, 40, 60 min) until 60 mins. • 9. Sample volume was 40 μL and added to 160 μL of crash solvent (acetonitrile with internal standard) and stored on ice. • 10. At the end of the assay, the crash plates were centrifuged at 3500 rpm for 20 mins at 4° C. • 11. 80 μL of clear supernatant was removed and mixed with 80 μL of deionised water before being analysed by LC-MS/MS.
(§9) Raw LC-MS/MS data were exported to, and analysed in, Microsoft Excel for determination of intrinsic clearance. The percentage remaining of a compound was monitored using the peak area of the initial concentration as 100%. Intrinsic clearance and half-life values were calculated using a graph of the natural log of percentage remaining versus the time of reaction in minutes.

A short description of data set [2]: Hepatocyte stability assay, mouse. It counts as in vitro ADME. The conditions noted are these: 10 μM compound, 0.5×10^6 cells/mL, 60 min; for CIint: Mouse hepatocytes; for half-life at 10 μM: cryo-preserved hepatocytes, read-out: T½.
Text: as §7, §8, §9

Each structure is given as a SMILES string.

For `C=C(CC(=O)OCC(=O)O)C(=O)OC1(c2ccc(C(F)(F)F)cc2)CCC1` [Example 22, 2-((3-((1-(4-(trifluoromethyl)phenyl)cyclobutoxy)carbonyl)but-3-enoyl)oxy)acetic acid], the IC50 – broadly, the point on the concentration scale where inhibition reaches its midpoint – in the data set with IL-1β (differentiated THP-1 cells) was 15.2 µM; in the data set with IL-6, more than 31.6 µM. The Emax – broadly, the greatest response seen or fitted, relative to the assay's reference – stood at 45% in the data set on NRF2 (+GSH) and 100% with NRF2 (−GSH). The 50% effective concentration (EC50) (as a rule, the concentration giving half of the maximal effect) was determined as 41.1 µM in the data set with NRF2 (+GSH) and 40 µM with NRF2 (−GSH). Further, the CIint is 7 μL min^−1 10^−6 cells in data set [1] and 392 μL min^−1 10^−6 cells in data set [2]. Besides, the half-life at 10 μM in data set [1] stood at 3.4 h; in data set [2], 0.0667 h.
Consider `C/C(=C\C(=O)O)C(=O)OC1(c2ccc(C(F)(F)F)cc2)CCC1` [Example 23, 3-methyl-4-oxo-4-(1-(4-(trifluoromethyl)phenyl)cyclobutoxy)but-2-enoic acid], for which the IC50 with IL-1β (THP-1, differentiated THP-1 cells) was 4 µM; in the data set with IL-6 it was more than 100 µM. For the same molecule, the Emax was 4% with NRF2 (+GSH) and 39% in the data set with NRF2 (−GSH). Moreover, the EC50 with NRF2 (+GSH) was more than 100 µM; with NRF2 (−GSH), 2.8 µM. The CIint in data set [1] and in data set [2] was less than 3 μL min^−1 10^−6 cells in each case. Moreover, the half-life at 10 μM in data set [1] and in data set [2] was more than 7.67 h in each case.
